{"source": "patent US9556159B2", "about": "“Renin inhibitor” (MITSUBISHI TANABE PHARMA CORPORATION, priority 2012, dated 2017)", "data": [{"target": "T1, Recombinant human renin (Homo sapiens, UniProt P00797)", "T1 sequence (P00797 67-406)": "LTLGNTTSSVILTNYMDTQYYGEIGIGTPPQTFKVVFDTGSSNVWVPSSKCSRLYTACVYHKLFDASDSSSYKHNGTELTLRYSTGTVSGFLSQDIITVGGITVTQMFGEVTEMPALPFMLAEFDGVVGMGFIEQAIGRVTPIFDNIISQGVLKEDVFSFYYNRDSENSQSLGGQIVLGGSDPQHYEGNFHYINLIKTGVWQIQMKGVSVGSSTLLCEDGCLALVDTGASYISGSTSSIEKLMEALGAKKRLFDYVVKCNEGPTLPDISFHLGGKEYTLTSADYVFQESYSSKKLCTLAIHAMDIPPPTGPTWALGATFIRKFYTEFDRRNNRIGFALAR", "test": "Inhibitory activity against human renin (fluorogenic peptide substrate)", "type": "biochemical", "details": "50% inhibitory concentration (IC50) against human renin, 37° C. for 1 hour", "units": {"IC50": "nM"}, "values": [{"smiles": "COC(=O)NCCCn1cc([C@@H](C)N(C(=O)[C@H]2CNC[C@@H](C)O2)C2CC2)nc1-c1ccccc1", "note": "[Example 230]", "IC50": 0.5}, {"smiles": "COC(=O)NCCCc1cc([C@@H](C)N(C(=O)[C@H]2CNCCO2)C2CC2)nn1-c1ccc(C)cc1", "note": "[Example 231]", "IC50": 1.2}, {"smiles": "COCCCCc1cc([C@@H](C)N(C(=O)[C@H]2CNCCO2)C2CC2)nn1-c1ccccc1", "note": "[Example 232]", "IC50": 0.6}, {"smiles": "COC(=O)NCCCn1nc([C@@H](C)N(C(=O)[C@H]2CNCCO2)C2CC2)c2c1C(C)(C)CC2", "note": "[Example 233]", "IC50": 0.3}, {"smiles": "COC(=O)NCCCn1nc([C@@H](C)N(C(=O)[C@H]2CNCCO2)C2CC2)c(C)c1-c1ncccc1F", "note": "[Example 234]", "IC50": 0.4}, {"smiles": "COC(=O)NCCCc1cc([C@@H](C)N(C(=O)[C@H]2CNCCO2)C2CC2)sc1-c1ccc(F)cn1", "note": "[Example 235]", "IC50": 0.1}, {"smiles": "COC(=O)NCCCc1cc([C@@H](C)N(C(=O)[C@H]2CNCCO2)C2CC2)sc1-c1ncccc1C", "note": "[Example 236]", "IC50": 0.2}, {"smiles": "CCOc1cc([C@@H](C)N(C(=O)[C@H]2CNCCO2)C2CC2)cc(CCCNC(=O)OC)n1", "note": "[Example 237]", "IC50": 0.5}, {"smiles": "COC(=O)NCCCc1cc([C@@H](C)N(C(=O)[C@H]2CNC[C@@H](C)O2)C2CC2)cc(OC)n1", "note": "[Example 238]", "IC50": 0.6}, {"smiles": "COC(=O)NCCCn1nc([C@@H](C)N(C(=O)[C@H]2CNC[C@@H](C(F)(F)F)O2)C2CC2)c2ccc(C)nc21", "note": "[Example 239]", "IC50": 3.1}, {"smiles": "COC(=O)NCCCc1cc([C@@H](C)N(C(=O)[C@H]2CNCCO2)C2CC2)sc1-c1cnn(C)c1", "note": "[Example 240]", "IC50": 0.2}, {"smiles": "COC(=O)NCCCc1cc([C@@H](C)N(C(=O)[C@H]2CNCCO2)C2CC2)sc1-c1cncnc1", "note": "[Example 242]", "IC50": 0.8}, {"smiles": "COC(=O)NCCCc1cc([C@@H](C)N(C(=O)[C@H]2CNCCO2)C2CC2)nn1-c1ccccc1OC", "note": "[Example 243]", "IC50": 0.7}, {"smiles": "COC(=O)NCCCc1c(F)c([C@@H](C)N(C(=O)[C@H]2CNCCO2)C2CC2)nn1-c1ccccc1", "note": "[Example 244]", "IC50": 1}, {"smiles": "COC(=O)NCCCn1cc([C@@H](C)N(C(=O)[C@H]2CNC[C@@H](C)O2)C2CC2)nc1C(C)C", "note": "[Example 245]", "IC50": 0.3}, {"smiles": "COC(=O)NCCCc1cc([C@@H](C)N(C(=O)[C@H]2CNCCO2)C2CC2)sc1C(F)(F)F", "note": "[Example 246]", "IC50": 0.4}, {"smiles": "COC(=O)NCCCn1nc([C@@H](C)N(C(=O)[C@H]2CNCCO2)C2CC2)nc1-c1ccc(C)cc1", "note": "[Example 247]", "IC50": 1.3}, {"smiles": "COC(=O)NCCCn1nc([C@@H](C)N(C(=O)[C@H]2CNCCO2)C2CC2)nc1-c1ccccc1C", "note": "[Example 248]", "IC50": 0.9}, {"smiles": "COC(=O)NCCCn1nc([C@@H](C)N(C(=O)[C@H]2CN[C@@H](C)CO2)C2CC2)c2ccc(C)nc21", "note": "[Example 249]", "IC50": 0.5}, {"smiles": "COC(=O)NCCCn1nc([C@@H](C)N(C(=O)[C@H]2CNC[C@@H](C)O2)C2CC2)c2ccc(C)nc21", "note": "[Example 250]", "IC50": 0.3}, {"smiles": "CCOc1ncc([C@@H](C)N(C(=O)[C@H]2CNCCO2)C2CC2)cc1CCCNC(=O)OC", "note": "[Example 251]", "IC50": 0.8}, {"smiles": "COC(=O)NCCCn1cc([C@@H](C)N(C(=O)[C@H]2CNC[C@@H](C(F)(F)F)O2)C2CC2)c2ncccc21", "note": "[Example 252]", "IC50": 6.4}, {"smiles": "COC(=O)NCCCn1nc([C@@H](C)N(C(=O)[C@H]2CNC[C@@H](C(=O)NCc3ccccc3)O2)C2CC2)c2ccc(C)nc21", "note": "[Example 253]", "IC50": 0.4}, {"smiles": "COC(=O)NCCCn1nc([C@@H](C)N(C(=O)[C@H]2CNC[C@@H](C(=O)OC)O2)C2CC2)c2ccc(C)nc21", "note": "[Example 254]", "IC50": 0.5}, {"smiles": "COC(=O)NCCCn1nc([C@@H](C)N(C(=O)[C@H]2CNC[C@@H](CO)O2)C2CC2)c2ccc(C)nc21", "note": "[Example 255]", "IC50": 0.4}, {"smiles": "COC(=O)NCCCn1nc([C@@H](C)N(C(=O)[C@H]2CNC[C@@H](C(=O)N(C)C)O2)C2CC2)c2ccc(C)nc21", "note": "[Example 256]", "IC50": 3.1}, {"smiles": "COC(=O)NCCCn1nc([C@@H](C)N(C(=O)[C@H]2CN[C@@H](COCc3ccccc3)CO2)C2CC2)c2ccc(C)nc21", "note": "[Example 257]", "IC50": 1.3}, {"smiles": "COC(=O)NCCCn1nc([C@@H](C)N(C(=O)[C@H]2CN[C@@H](CO)CO2)C2CC2)c2ccc(C)nc21", "note": "[Example 258]", "IC50": 3.2}, {"smiles": "CNC(=O)[C@@H]1CNC[C@H](C(=O)N(C2CC2)[C@H](C)c2nn(CCCNC(=O)OC)c3nc(C)ccc23)O1", "note": "[Example 259]", "IC50": 1.2}, {"smiles": "COC(=O)NCCCc1cc([C@@H](C)N(C(=O)[C@H]2CNCCO2)C2CC2)sc1-c1cc(C(=O)OC)cc(C(F)(F)F)c1", "note": "[Example 260]", "IC50": 2.6}, {"smiles": "COC[C@H]1CO[C@@H](C(=O)N(C2CC2)[C@H](C)c2nn(CCCNC(=O)OC)c3nc(C)ccc23)CN1", "note": "[Example 261]", "IC50": 0.7}, {"smiles": "COC(=O)NCCCc1cc([C@@H](C)N(C(=O)[C@H]2CNCCO2)C2CC2)sc1-c1cc(C(F)(F)F)ccc1C(=O)OC", "note": "[Example 262]", "IC50": 3.9}, {"smiles": "COC(=O)NCCCc1cc([C@@H](C)N(C(=O)[C@H]2CNCCO2)C2CC2)sc1-c1cccc(-c2nnn[nH]2)c1", "note": "[Example 263]", "IC50": 0.2}, {"smiles": "COC(=O)NCCCc1cc([C@@H](C)N(C(=O)[C@H]2CNCCO2)C2CC2)sc1-c1ccccc1O", "note": "[Example 264]", "IC50": 1.1}, {"smiles": "COC(=O)NCCCn1nc([C@@H](C)N(C(=O)[C@H]2CN[C@@H](CF)CO2)C2CC2)c2ccc(C)nc21", "note": "[Example 265]", "IC50": 6.8}, {"smiles": "COC(=O)NCCCc1cc([C@@H](C)N(C(=O)[C@H]2CN[C@@H](C)CO2)C2CC2)cc(OC)n1", "note": "[Example 266]", "IC50": 2.7}, {"smiles": "COC(=O)NCCCc1cc([C@@H](C)N(C(=O)[C@H]2CNCCO2)C2CC2)sc1-c1ccccc1C(=O)OC", "note": "[Example 268]", "IC50": 0.5}, {"smiles": "COC(=O)NCCCc1cc([C@@H](C)N(C(=O)[C@H]2CNCCO2)C2CC2)sc1-c1ccccc1NS(C)(=O)=O", "note": "[Example 269]", "IC50": 0.3}, {"smiles": "COC(=O)NCCCc1cc([C@@H](C)N(C(=O)[C@H]2CNCCO2)C2CC2)sc1-c1ccccc1-c1nnn[nH]1", "note": "[Example 270]", "IC50": 0.5}, {"smiles": "COC[C@H]1CO[C@@H](C(=O)N(C2CC2)[C@H](C)c2cc(CCCNC(=O)OC)nc(OC)c2)CN1", "note": "[Example 271]", "IC50": 3}, {"smiles": "COC(=O)NCCCc1cc([C@@H](C)N(C(=O)[C@H]2CNCCO2)C2CC2)sc1Cc1nnn[nH]1", "note": "[Example 272]", "IC50": 6.1}, {"smiles": "CCOC[C@H]1CO[C@@H](C(=O)N(C2CC2)[C@H](C)c2nn(CCCNC(=O)OC)c3nc(C)ccc23)CN1", "note": "[Example 273]", "IC50": 1}, {"smiles": "COC(=O)NCCCc1cc([C@@H](C)N(C(=O)[C@H]2CNCCO2)C2CC2)sc1-c1cccc(F)c1O", "note": "[Example 274]", "IC50": 0.5}, {"smiles": "COC(=O)NCCCc1cc([C@@H](C)N(C(=O)[C@H]2CNCCO2)C2CC2)sc1-c1cc(F)cc(F)c1O", "note": "[Example 275]", "IC50": 0.9}, {"smiles": "COC(=O)NCCCc1cc([C@@H](C)N(C(=O)[C@H]2CNCCO2)C2CC2)sc1-c1ccccc1-c1n[nH]c(=O)o1", "note": "[Example 276]", "IC50": 0.5}, {"smiles": "COC[C@@H]1CNC[C@H](C(=O)N(C2CC2)[C@H](C)c2cn(CCCNC(=O)OC)c(-c3ccc(F)cc3)n2)O1", "note": "[Example 277]", "IC50": 0.6}, {"smiles": "COC(=O)NCCCn1nc([C@@H](C)N(C(=O)[C@H]2CN[C@@H](COCC(F)(F)F)CO2)C2CC2)c2ccc(C)nc21", "note": "[Example 278]", "IC50": 1.2}, {"smiles": "COC[C@H]1CO[C@@H](C(=O)N(C2CC2)[C@H](C)c2cn(CCCNC(=O)OC)c(-c3ccc(F)cc3)n2)CN1", "note": "[Example 279]", "IC50": 0.5}, {"smiles": "COC(=O)NCCCn1cc([C@@H](C)N(C(=O)[C@H]2CN[C@@H](C)CO2)C2CC2)nc1-c1ccc(F)cc1", "note": "[Example 280]", "IC50": 0.3}, {"smiles": "COC(=O)NCCCc1cc([C@@H](C)N(C(=O)[C@H]2CNCCO2)C2CC2)sc1-c1ccccc1-c1cc(O)no1", "note": "[Example 281]", "IC50": 0.4}, {"smiles": "COC(=O)NCCCn1cc([C@@H](C)N(C(=O)[C@H]2CNC[C@@H](C)O2)C2CC2)nc1-c1ccc(F)cc1", "note": "[Example 282]", "IC50": 0.6}, {"smiles": "COC[C@H]1CO[C@@H](C(=O)N(C2CC2)[C@H](C)c2cc(CCCNC(=O)OC)n(-c3ccccc3)n2)CN1", "note": "[Example 283]", "IC50": 0.9}, {"smiles": "COC(=O)NCCCc1cc([C@@H](C)N(C(=O)[C@H]2CNCCO2)C2CC2)sc1-c1ccccc1CNS(=O)(=O)C(F)(F)F", "note": "[Example 284]", "IC50": 1.3}, {"smiles": "COC[C@@H]1CNC[C@H](C(=O)N(C2CC2)[C@H](C)c2cc(CCCNC(=O)OC)n(-c3ccccc3)n2)O1", "note": "[Example 285]", "IC50": 0.6}, {"smiles": "COC(=O)NCCCc1cc([C@@H](C)N(C(=O)[C@H]2CNCCO2)C2CC2)sc1-c1ccccc1CNS(=O)(=O)CC(F)(F)F", "note": "[Example 286]", "IC50": 0.4}, {"smiles": "COC(=O)NCCCc1cc([C@@H](C)N(C(=O)[C@H]2CNCCO2)C2CC2)sc1-c1ccccc1C(=O)NS(C)(=O)=O", "note": "[Example 287]", "IC50": 0.8}, {"smiles": "COC(=O)NCCCc1cc([C@@H](C)N(C(=O)[C@H]2CNCCO2)C2CC2)sc1-c1ccccc1C(=O)NS(=O)(=O)c1ccccc1", "note": "[Example 288]", "IC50": 0.4}, {"smiles": "COC[C@H]1CO[C@@H](C(=O)N(C2CC2)[C@H](C)c2cn(CCCNC(=O)OC)c(C3CCCCC3)n2)CN1", "note": "[Example 289]", "IC50": 0.5}, {"smiles": "COC[C@@H]1CNC[C@H](C(=O)N(C2CC2)[C@H](C)c2cn(CCCNC(=O)OC)c(C3CCCCC3)n2)O1", "note": "[Example 290]", "IC50": 0.4}, {"smiles": "COC(=O)NCCCn1cc([C@@H](C)N(C(=O)[C@H]2CNCCO2)C2CC2)nc1C1CCOCC1", "note": "[Example 291]", "IC50": 0.6}, {"smiles": "COC[C@@H]1CNC[C@H](C(=O)N(C2CC2)[C@H](C)c2cn(CCCNC(=O)OC)c3ncccc23)O1", "note": "[Example 292]", "IC50": 0.4}, {"smiles": "COC(=O)NCCCn1nc([C@@H](C)N(C(=O)[C@H]2CNC[C@@H](C(C)(C)O)O2)C2CC2)c2ccc(C)nc21", "note": "[Example 293]", "IC50": 7.7}, {"smiles": "CCCCCc1cc([C@@H](C)N(C(=O)[C@H]2CNC[C@@H](C)O2)C2CC2)sc1-c1ccccc1-c1nn[nH]n1", "note": "[Example 294]", "IC50": 6}]}]}
